Measurements published in US4656166A, “Antibiotic compounds derived from cephalosporins, process for their production and pharmaceutical compositions” (Sanofi, priority 1983, dated 1987).
Converted amounts (≈) assume the structure as drawn.

Assays:
Assay type in all cases: cell-based
Escherichia coli SOL 90 = test: MIC, in vitro dilution method, Escherichia coli SOL 90 (Table III); details: SOL90; Escherichia coli SOL 90; dilution method; read-out: MIC
Description: (§1) The products of the invention have been studied as regards their pharmacological properties and, more especially, bacteriostatic action. This has been determined in vitro by the dilution method, and the study was on Gram negative strains.
(§2) Results, expressed in minimum inhibiting concentrations (MIC-- μg/ml), are collected in the following table (Table III).

Enterobacter RO 154 = test: MIC, in vitro dilution method, Enterobacter RO 154 (Table III); details: RO154; Enterobacter RO 154; dilution method; read-out: MIC
Description: as §1, §2

Klebsiella RO 30 = test: MIC, in vitro dilution method, Klebsiella RO 30 (Table III); details: RO30; Klebsiella RO 30; dilution method; read-out: MIC
Description: as §1, §2

Pseudomonas RL 112 = test: MIC, in vitro dilution method, Pseudomonas RL 112 (Table III); details: RL112
Description: as §1, §2

SMILES	MIC (Escherichia coli SOL 90)	MIC (Enterobacter RO 154)	MIC (Klebsiella RO 30)	MIC (Pseudomonas RL 112)
Cc1cc(NC(=O)CN)c(C)c(C(=O)OCC2=C(C(=O)O)N3C(=O)C(NC(=O)C(=NOC(C)(C)C(=O)O)c4csc(N)n4)C3[S+]([O-])C2)c1 (stereo not shown) [42 814]	0.5 µg/mL (≈ 0.708 µM)	8 µg/mL (≈ 11.3 µM)	0.25 µg/mL (≈ 0.354 µM)	8 µg/mL (≈ 11.3 µM)
CNCC(=O)Nc1cccc(C(=O)OCC2=C(C(=O)O)N3C(=O)C(NC(=O)C(=NOC(C)(C)C(=O)O)c4csc(N)n4)C3[S+]([O-])C2)c1 (stereo not shown) [42 583]	1 µg/mL (≈ 1.45 µM)	4 µg/mL (≈ 5.78 µM)	0.5 µg/mL (≈ 0.723 µM)	8 µg/mL (≈ 11.6 µM)
CN(C(=O)CN)c1ccc(C(=O)OCC2=C(C(=O)O)N3C(=O)C(NC(=O)C(=NOC(C)(C)C(=O)O)c4csc(N)n4)C3[S+]([O-])C2)cc1 (stereo not shown) [42 657]	0.25 µg/mL (≈ 0.361 µM)	4 µg/mL (≈ 5.78 µM)	0.25 µg/mL (≈ 0.361 µM)	8 µg/mL (≈ 11.6 µM)
Cc1cc(CN)ccc1C(=O)OCC1=C(C(=O)O)N2C(=O)C(NC(=O)C(=NOC3(C(=O)O)CCC3)c3csc(N)n3)C2[S+]([O-])C1 (stereo not shown) [42 849]	0.125 µg/mL (≈ 0.189 µM)	2 µg/mL (≈ 3.03 µM)	0.125 µg/mL (≈ 0.189 µM)	4 µg/mL (≈ 6.05 µM)
CNCC(=O)Nc1ccc(C(=O)OCC2=C(C(=O)O)N3C(=O)C(NC(=O)C(=NOC(C)(C)C(=O)O)c4csc(N)n4)C3[S+]([O-])C2)cc1 (stereo not shown) [42 584]	0.25 µg/mL (≈ 0.361 µM)	2 µg/mL (≈ 2.89 µM)	0.25 µg/mL (≈ 0.361 µM)	4 µg/mL (≈ 5.78 µM)
CC(C)(ON=C(C(=O)NC1C(=O)N2C(C(=O)O)=C(COC(=O)c3ccc(CN)c(F)c3)C[S+]([O-])C12)c1csc(N)n1)C(=O)O (stereo not shown) [42 581]	0.125 µg/mL (≈ 0.192 µM)	2 µg/mL (≈ 3.06 µM)	0.125 µg/mL (≈ 0.192 µM)	4 µg/mL (≈ 6.13 µM)
CNCc1ccc(C(=O)OCC2=C(C(=O)O)N3C(=O)C(NC(=O)C(=NOC(C)(C)C(=O)O)c4csc(N)n4)C3[S+]([O-])C2)cc1F (stereo not shown) [42 582]	0.25 µg/mL (≈ 0.375 µM)	2 µg/mL (≈ 3 µM)	0.25 µg/mL (≈ 0.375 µM)	8 µg/mL (≈ 12 µM)
CC(C)(ON=C(C(=O)NC1C(=O)N2C(C(=O)O)=C(COC(=O)C3CCN(C(=O)CCN)CC3)C[S+]([O-])C12)c1csc(N)n1)C(=O)O (stereo not shown) [42 782]	0.25 µg/mL (≈ 0.366 µM)	2 µg/mL (≈ 2.93 µM)	0.125 µg/mL (≈ 0.183 µM)	4 µg/mL (≈ 5.85 µM)
Cc1cc(CN)ccc1C(=O)SCC1=C(C(=O)O)N2C(=O)C(NC(=O)C(=NOC(C)(C)C(=O)O)c3csc(N)n3)C2[S+]([O-])C1 (stereo not shown) [compound 42850]	0.5 µg/mL (≈ 0.752 µM)	2 µg/mL (≈ 3.01 µM)	0.25 µg/mL (≈ 0.376 µM)	8 µg/mL (≈ 12 µM)
NCC(=O)Nc1cccc(C(=O)SCC2=C(C(=O)O)N3C(=O)C(NC(=O)C(=NOC4(C(=O)O)CCC4)c4csc(N)n4)C3[S+]([O-])C2)c1 (stereo not shown) [compound 42686]	2 µg/mL (≈ 2.83 µM)	2 µg/mL (≈ 2.83 µM)	1 µg/mL (≈ 1.42 µM)	8 µg/mL (≈ 11.3 µM)
CC(C)(CN)C(=O)SCC1=C(C(=O)O)N2C(=O)C(NC(=O)C(=NOC(C)(C)C(=O)O)c3csc(N)n3)C2[S+]([O-])C1 (stereo not shown) [compound 42663]	4 µg/mL (≈ 6.49 µM)	4 µg/mL (≈ 6.49 µM)	1 µg/mL (≈ 1.62 µM)	8 µg/mL (≈ 13 µM)
NCCC(=O)Nc1ccc(C(=O)OCC2=C(C(=O)O)N3C(=O)C(NC(=O)C(=NOC4(C(=O)O)CCC4)c4csc(N)n4)C3[S+]([O-])C2)cc1 (stereo not shown) [42 658]	0.125 µg/mL (≈ 0.178 µM)	8 µg/mL (≈ 11.4 µM)	0.125 µg/mL (≈ 0.178 µM)	4 µg/mL (≈ 5.68 µM)
CC(C)(ON=C(C(=O)NC1C(=O)N2C(C(=O)O)=C(COC(=O)c3ccc(NC(=O)C4CCNCC4)cc3)C[S+]([O-])C12)c1csc(N)n1)C(=O)O (stereo not shown) [42 815]	0.125 µg/mL (≈ 0.171 µM)	8 µg/mL (≈ 10.9 µM)	0.25 µg/mL (≈ 0.342 µM)	8 µg/mL (≈ 10.9 µM)
Cc1cc(CN)ccc1C(=O)SCC1=C(C(=O)O)N2C(=O)C(NC(=O)C(=NOC3(C(=O)O)CCC3)c3csc(N)n3)C2[S+]([O-])C1 (stereo not shown) [compound 42851]	0.5 µg/mL (≈ 0.739 µM)	1 µg/mL (≈ 1.48 µM)	0.25 µg/mL (≈ 0.369 µM)	8 µg/mL (≈ 11.8 µM)
Cc1cc(CN)ccc1C(=O)OCC1=C(C(=O)O)N2C(=O)C(NC(=O)C(=NOC(C)(C)C(=O)O)c3csc(N)n3)C2[S+]([O-])C1 (stereo not shown) [42 848]	0.125 µg/mL (≈ 0.193 µM)	2 µg/mL (≈ 3.08 µM)	0.125 µg/mL (≈ 0.193 µM)	4 µg/mL (≈ 6.17 µM)
CC(C)(ON=C(C(=O)NC1C(=O)N2C(C(=O)O)=C(COC(=O)C3CCC(N)CC3)C[S+]([O-])C12)c1csc(N)n1)C(=O)O (stereo not shown) [42 811]	0.125 µg/mL (≈ 0.199 µM)	2 µg/mL (≈ 3.19 µM)	0.125 µg/mL (≈ 0.199 µM)	4 µg/mL (≈ 6.38 µM)

SMILES	MIC (Escherichia coli SOL 90)	MIC (Enterobacter RO 154)	MIC (Klebsiella RO 30)	MIC (Pseudomonas RL 112)
NCC(=O)N1CCC(C(=O)SCC2=C(C(=O)O)N3C(=O)C(NC(=O)C(=NOC4(C(=O)O)CCC4)c4csc(N)n4)C3[S+]([O-])C2)CC1 (stereo not shown) [compound 42674]	1 µg/mL (≈ 1.43 µM)	2 µg/mL (≈ 2.87 µM)	0.5 µg/mL (≈ 0.717 µM)	8 µg/mL (≈ 11.5 µM)
CC(C)(ON=C(C(=O)NC1C(=O)N2C(C(=O)O)=C(CSC(=O)c3cccc(NC(=O)CN)c3)C[S+]([O-])C12)c1csc(N)n1)C(=O)O (stereo not shown) [compound 42685]	2 µg/mL (≈ 2.88 µM)	2 µg/mL (≈ 2.88 µM)	1 µg/mL (≈ 1.44 µM)	8 µg/mL (≈ 11.5 µM)
Cc1nc(NC(=O)CN)sc1C(=O)OCC1=C(C(=O)O)N2C(=O)C(NC(=O)C(=NOC(C)(C)C(=O)O)c3csc(N)n3)C2[S+]([O-])C1 (stereo not shown) [42 690]	0.5 µg/mL (≈ 0.716 µM)	8 µg/mL (≈ 11.4 µM)	0.5 µg/mL (≈ 0.716 µM)	4 µg/mL (≈ 5.72 µM)
CC(C)(ON=C(C(=O)NC1C(=O)N2C(C(=O)O)=C(COC(=O)c3ccc(CN)c(Br)c3)C[S+]([O-])C12)c1csc(N)n1)C(=O)O (stereo not shown) [42 676]	0.25 µg/mL (≈ 0.35 µM)	2 µg/mL (≈ 2.8 µM)	0.25 µg/mL (≈ 0.35 µM)	8 µg/mL (≈ 11.2 µM)
Cc1c(NC(=O)CCN)cccc1C(=O)OCC1=C(C(=O)O)N2C(=O)C(NC(=O)C(=NOC(C)(C)C(=O)O)c3csc(N)n3)C2[S+]([O-])C1 (stereo not shown) [42 586]	0.25 µg/mL (≈ 0.354 µM)	16 µg/mL (≈ 22.7 µM)	0.25 µg/mL (≈ 0.354 µM)	4 µg/mL (≈ 5.67 µM)
CC(N)C(=O)Nc1ccc(C(=O)OCC2=C(C(=O)O)N3C(=O)C(NC(=O)C(=NOC(C)(C)C(=O)O)c4csc(N)n4)C3[S+]([O-])C2)cc1 (stereo not shown) [42 817]	0.125 µg/mL (≈ 0.181 µM)	4 µg/mL (≈ 5.78 µM)	0.25 µg/mL (≈ 0.361 µM)	4 µg/mL (≈ 5.78 µM)
NCC(=O)Nc1ccc(C(=O)SCC2=C(C(=O)O)N3C(=O)C(NC(=O)C(=NOC4(C(=O)O)CCC4)c4csc(N)n4)C3[S+]([O-])C2)cc1 (stereo not shown) [compound 42665]	0.5 µg/mL (≈ 0.708 µM)	2 µg/mL (≈ 2.83 µM)	0.5 µg/mL (≈ 0.708 µM)	8 µg/mL (≈ 11.3 µM)
Cc1cc(C(=O)SCC2=C(C(=O)O)N3C(=O)C(NC(=O)C(=NOC(C)(C)C(=O)O)c4csc(N)n4)C3[S+]([O-])C2)ccc1CN (stereo not shown) [compound 42661]	0.5 µg/mL (≈ 0.752 µM)	1 µg/mL (≈ 1.5 µM)	0.25 µg/mL (≈ 0.376 µM)	8 µg/mL (≈ 12 µM)
CC(N)C(=O)N1CCC(C(=O)OCC2=C(C(=O)O)N3C(=O)C(NC(=O)C(=NOC(C)(C)C(=O)O)c4csc(N)n4)C3[S+]([O-])C2)CC1 (stereo not shown) [42 781]	0.25 µg/mL (≈ 0.366 µM)	2 µg/mL (≈ 2.93 µM)	0.125 µg/mL (≈ 0.183 µM)	4 µg/mL (≈ 5.85 µM)
CC(C)(ON=C(C(=O)NC1C(=O)N2C(C(=O)O)=C(COC(=O)c3ccc(NC(=O)CCCN)cc3)C[S+]([O-])C12)c1csc(N)n1)C(=O)O (stereo not shown) [42 688]	0.125 µg/mL (≈ 0.177 µM)	4 µg/mL (≈ 5.67 µM)	0.25 µg/mL (≈ 0.354 µM)	4 µg/mL (≈ 5.67 µM)
CC(C)(ON=C(C(=O)NC1C(=O)N2C(C(=O)O)=C(COC(=O)c3cccc(NC(=O)CCCN)c3)C[S+]([O-])C12)c1csc(N)n1)C(=O)O (stereo not shown) [42 687]	2 µg/mL (≈ 2.83 µM)	4 µg/mL (≈ 5.67 µM)	1 µg/mL (≈ 1.42 µM)	8 µg/mL (≈ 11.3 µM)
CC(C)(ON=C(C(=O)NC1C(=O)N2C(C(=O)O)=C(COC(=O)c3ccc(NC(=O)CCCCN)cc3)C[S+]([O-])C12)c1csc(N)n1)C(=O)O (stereo not shown) [42 689]	0.125 µg/mL (≈ 0.174 µM)	4 µg/mL (≈ 5.56 µM)	0.25 µg/mL (≈ 0.347 µM)	4 µg/mL (≈ 5.56 µM)
CC(N)C(=O)Nc1nc(C(=O)OCC2=C(C(=O)O)N3C(=O)C(NC(=O)C(=NOC(C)(C)C(=O)O)c4csc(N)n4)C3[S+]([O-])C2)cs1 (stereo not shown) [42 857]	0.5 µg/mL (≈ 0.716 µM)	8 µg/mL (≈ 11.4 µM)	1 µg/mL (≈ 1.43 µM)	8 µg/mL (≈ 11.4 µM)
CC(C)(ON=C(C(=O)NC1C(=O)N2C(C(=O)O)=C(COC(=O)c3csc(NC(=O)CCN)n3)C[S+]([O-])C12)c1csc(N)n1)C(=O)O (stereo not shown) [42 587]	0.25 µg/mL (≈ 0.358 µM)	8 µg/mL (≈ 11.4 µM)	0.25 µg/mL (≈ 0.358 µM)	4 µg/mL (≈ 5.72 µM)
CC(C)(ON=C(C(=O)NC1C(=O)N2C(C(=O)O)=C(COC(=O)C3CCN(C(=O)CCCN)CC3)C[S+]([O-])C12)c1csc(N)n1)C(=O)O (stereo not shown) [42 783]	0.25 µg/mL (≈ 0.358 µM)	2 µg/mL (≈ 2.87 µM)	0.125 µg/mL (≈ 0.179 µM)	8 µg/mL (≈ 11.5 µM)
